Marks after values point to notes of the source that are not given here.
Legend:
[1] = system: canine parvovirus; experiment: treatment of canine parvovirus; assay type: in vivo, dogs; design: White blood cell count: unit not given here; settings: 14 days, n = 10
Protocol: (§1) Anemoside B4 injection prepared in example 3, with a concentration of 50 mg/mL.
Dogs suffering from canine parvovirus are cases received by various pet hospitals in Chengdu.
In the early, dogs have high temperature and vomit violently. The vomit changes from white to yellow, and finally to green, with a small amount of blood streak; eyes' conjunctival congestion and tears; liking drinking water and vomiting after drinking; fecal jets are like tomato sauce, smelly and unpleasant; preferring to lie down; the number of white blood cells dropped sharply, together with severe dehydration, heart failure, and shock to death.
(§2) Anemoside B4 injection was intravenously injected, 2 mL/time in low-dose group, 4 mL/time in medium-dose group, 8 mL/time in high-dose group, once a day; anemoside B4 injection was intramuscularly injected, 1 mL/time in low-dose group, 2 mL/time in the middle-dose group, 4 mL/time in the high-dose group, twice a day; the treatment was kept for 14 days.

[2] = system: cow clinical endometritis; experiment: treatment of cow clinical endometritis; assay type: in vivo, cows; settings: n = 10
Protocol: Anemoside B4 injection prepared in example 3, with a concentration of 50 mg/mL; Anemoside B4 intrauterine injection prepared in example 5, with a concentration of 50 mg/mL.
Positive drug: doxycycline hydrochloride intrauterine injection (24 g/injection, produced by Zhengzhou Bairui Animal Pharmaceutical Co., Ltd., batch No.: 170901).
130 cows with disease were randomly divided into 13 groups, 10 cows for each group.
The cows selected in this experiment were all those with clinical endometritis. During the experiment, the temperature, spirit and diet of the cows were normal.
Administration by […] injection: Administrating anemoside B4 by intramulscular injection, twice per day, one in the morning and another in the evening, for successive four days;
Administration by intrauterine infusion: administrating anemoside B4 and positive drug doxycycline hydrochloride by intrauterine infusion, once every other day, for 4 times.
A blank control group was set up in different administration routes, and the same dose of normal saline was administered.

[3] = system: canine distemper; experiment: treatment of canine distemper; assay type: in vivo, dogs; settings: for Cure / Death: 14 days, 10 dogs treated
Protocol: as §1
Dogs suffering from canine distemper are cases received by various pet hospitals in Chengdu.
According to the clinical symptoms, canine distemper can be divided into early, middle and late stages.
The vomit is mucus or yellow liquid, while the stool is dark brown or covered with mucus. As the progress of the disease course, dogs with canine distemper often develop secondary bacterial infections due to their decreased resistance.
as §2

[4] = system: cow foot rot disease; experiment: treatment of cow foot rot disease; assay type: in vivo, cows; settings: for Milk production (daily yield) / Total number of cured cows: n = 10
[5] = system: feline parvovirus; experiment: treatment of feline parvovirus; assay type: in vivo, cats; design: White blood cell count: unit not given here; settings: 14 days, n = 10
Protocol: as §1
Cats suffering from feline parvovirus are cases received by various pet hospitals in Chengdu.
Cats occasionally having fever, severe vomiting, and diarrhea; the stool changing from gray to yellow and finally to milky white, accompanied by jelly-like mucus; stools liking tomato sauce, smelly and unpleasant; having a lying prone; the number of white blood cells dropping sharply, cold limbs, highly depressed spirit, then shock to death.
as §2

[6] = high-dose, intramuscular injection 4 mL/time (50 mg/mL), twice a day
[7] = high-dose, intravenous injection 8 mL/time (50 mg/mL), once a day
[8] = low-dose, intramuscular injection 1 mL/time (50 mg/mL), twice a day
[9] = low-dose, intravenous injection 2 mL/time (50 mg/mL), once a day
[10] = medium-dose, intramuscular injection 2 mL/time (50 mg/mL), twice a day
[11] = medium-dose, intravenous injection 4 mL/time (50 mg/mL), once a day
[12] = high-dose, intramuscular injection 30 mL/time (50 mg/mL), twice per day, 4 days
[13] = high-dose, intrauterine infusion 30 mL/time (50 mg/mL), once every other day, 4 times
[14] = high-dose, intravenous injection 60 mL/time (50 mg/mL)
[15] = low-dose, intramuscular injection 10 mL/time (50 mg/mL), twice per day, 4 days
[16] = low-dose, intrauterine infusion 10 mL/time (50 mg/mL), once every other day, 4 times
[17] = low-dose, intravenous injection 20 mL/time (50 mg/mL)
[18] = medium-dose, intramuscular injection 20 mL/time (50 mg/mL), twice per day, 4 days
[19] = medium-dose, intrauterine infusion 20 mL/time (50 mg/mL), once every other day, 4 times
[20] = medium-dose, intravenous injection 40 mL/time (50 mg/mL)
[21] = high-dose, intravenous injection 60 mL (50 mg/mL), once a day, 4 days
[22] = high-dose, pulvis 1.5 g, external application, once every other day, 4 times
[23] = high-dose, subcutaneous injection 15 mL (50 mg/mL) in affected limbs, once a day, 4 days
[24] = low-dose, intravenous injection 20 mL (50 mg/mL), once a day, 4 days
[25] = low-dose, pulvis 0.5 g, external application, once every other day, 4 times
[26] = low-dose, subcutaneous injection 5 mL (50 mg/mL) in affected limbs, once a day, 4 days
[27] = medium-dose, intravenous injection 40 mL (50 mg/mL), once a day, 4 days
[28] = medium-dose, pulvis 1.0 g, external application, once every other day, 4 times
[29] = medium-dose, subcutaneous injection 10 mL (50 mg/mL) in affected limbs, once a day, 4 days

**Q.** Which Body temperature [1, 6] does the source give for `C=C(C)[C@@H]1CC[C@]2(C(=O)O[C@@H]3O[C@H](CO[C@@H]4O[C@H](CO)[C@@H](O[C@@H]5O[C@@H](C)[C@H](O)[C@@H](O)[C@H]5O)[C@H](O)[C@H]4O)[C@@H](O)[C@H](O)[C@H]3O)CC[C@]3(C)[C@H](CC[C@@H]4[C@@]5(C)CC[C@H](O[C@@H]6OC[C@H](O)[C@H](O)[C@H]6O[C@@H]6O[C@@H](C)[C@H](O)[C@@H](O)[C@H]6O)[C@@](C)(CO)[C@@H]5CC[C@]43C)[C@H]12` [anemoside B4] here?
**A.** 37.8 ± 0.4 °C

**Q.** What about the Mortality rate [1, 6] of the same compound?
**A.** 50%

**Q.** And the “White blood cell count” value [1, 6]?
**A.** 6.2 ± 0.5 ×10^9

**Q.** What about the Body temperature [1, 7] of the same compound?
**A.** 37.4 ± 0.2 °C

**Q.** And the Mortality rate [1, 7]?
**A.** 30%

**Q.** And the “White blood cell count” value [1, 7]?
**A.** 8.2 ± 0.7 ×10^9

**Q.** What about the Body temperature [1, 8] of the same compound?
**A.** 39.2 ± 0.5 °C

**Q.** What about the Mortality rate [1, 8] of the same compound?
**A.** 80%

**Q.** What about the “White blood cell count” value [1, 8] of the same compound?
**A.** 3.3 ± 0.3 ×10^9

**Q.** And the Body temperature [1, 9]?
**A.** 38.2 ± 0.5 °C

**Q.** And the Mortality rate [1, 9]?
**A.** 50%

**Q.** What about the “White blood cell count” value [1, 9] of the same compound?
**A.** 6.3 ± 0.4 ×10^9

**Q.** And the Body temperature [1, 10]?
**A.** 38.4 ± 0.3 °C

**Q.** And the Mortality rate [1, 10]?
**A.** 60%

**Q.** And the “White blood cell count” value [1, 10]?
**A.** 4.6 ± 0.8 ×10^9

**Q.** And the Body temperature [1, 11]?
**A.** 37.6 ± 0.3 °C

**Q.** And the Mortality rate [1, 11]?
**A.** 40%

**Q.** And the “White blood cell count” value [1, 11]?
**A.** 7.6 ±0.6 ×10^9

**Q.** And the “Mean time of first estrus after medication” value (“Mean time of first estrus” below) [2, 12]?
**A.** 25 ± 5.5 days

**Q.** What about the Oestrus rate [2, 12] of the same compound?
**A.** 65* %

**Q.** And the “Pregnancy rate in three estrous periods after delivery” value (shortened to “Pregnancy rate”) [2, 12]?
**A.** 56* %

**Q.** What about the “Mean time of first estrus” value [2, 13] of the same compound?
**A.** 23 ± 6.2 days

**Q.** And the Oestrus rate [2, 13]?
**A.** 78* %

**Q.** And the “Pregnancy rate” value [2, 13]?
**A.** 75* %

**Q.** What about the “Mean time of first estrus” value [2, 14] of the same compound?
**A.** 24 ± 5.2 days

**Q.** And the Oestrus rate [2, 14]?
**A.** 68* %

**Q.** And the “Pregnancy rate” value [2, 14]?
**A.** 58* %

**Q.** And the “Mean time of first estrus” value [2, 15]?
**A.** 27 ± 5.8 days

**Q.** And the Oestrus rate [2, 15]?
**A.** 54%

**Q.** And the “Pregnancy rate” value [2, 15]?
**A.** 42%

**Q.** And the “Mean time of first estrus” value [2, 16]?
**A.** 25 ± 5.4 days

**Q.** And the Oestrus rate [2, 16]?
**A.** 64%

**Q.** And the “Pregnancy rate” value [2, 16]?
**A.** 52%

**Q.** And the “Mean time of first estrus” value [2, 17]?
**A.** 27 ± 6.4 days

**Q.** And the Oestrus rate [2, 17]?
**A.** 57%

**Q.** And the “Pregnancy rate” value [2, 17]?
**A.** 46%

**Q.** And the “Mean time of first estrus” value [2, 18]?
**A.** 26 ± 4.6 days

**Q.** What about the Oestrus rate [2, 18] of the same compound?
**A.** 60%

**Q.** And the “Pregnancy rate” value [2, 18]?
**A.** 52%

**Q.** What about the “Mean time of first estrus” value [2, 19] of the same compound?
**A.** 24 ± 7.3 days

**Q.** What about the Oestrus rate [2, 19] of the same compound?
**A.** 74* %

**Q.** What about the “Pregnancy rate” value [2, 19] of the same compound?
**A.** 70* %

**Q.** What about the “Mean time of first estrus” value [2, 20] of the same compound?
**A.** 26 ± 4.3 days

**Q.** And the Oestrus rate [2, 20]?
**A.** 63%

**Q.** And the “Pregnancy rate” value [2, 20]?
**A.** 52%

**Q.** What about the “therapeutic effect on canine distemper (conclusion in words)” value ([3]; dogs) of the same compound?
**A.** a better therapeutic effect on canine distemper

**Q.** What about the Cure [3, 6] of the same compound?
**A.** 5 dog

**Q.** And the Death [3, 6]?
**A.** 5 dog

**Q.** What about the Cure [3, 7] of the same compound?
**A.** 6 dog

**Q.** And the Death [3, 7]?
**A.** 4 dog

**Q.** And the Cure [3, 8]?
**A.** 3 dog

**Q.** What about the Death [3, 8] of the same compound?
**A.** 7 dog

**Q.** What about the Cure [3, 9] of the same compound?
**A.** 4 dog

**Q.** What about the Death [3, 9] of the same compound?
**A.** 6 dog

**Q.** And the Cure [3, 10]?
**A.** 4 dog

**Q.** And the Death [3, 10]?
**A.** 6 dog

**Q.** What about the Cure [3, 11] of the same compound?
**A.** 5 dog

**Q.** And the Death [3, 11]?
**A.** 5 dog

**Q.** What about the cure rate ([4]; high-dose subcutaneous injection group, middle- and high-dose pulvis groups) of the same compound?
**A.** above 80%

**Q.** And the “Milk production (daily yield)” value [4, 21]?
**A.** 22.2 ± 1.5 kg/cow

**Q.** And the “Total number of cured cows” value [4, 21]?
**A.** 6

**Q.** And the “Milk production (daily yield)” value [4, 22]?
**A.** 25.9 ± 2.4 kg/cow

**Q.** And the “Total number of cured cows” value [4, 22]?
**A.** 9

**Q.** What about the “Milk production (daily yield)” value [4, 23] of the same compound?
**A.** 25.6 ± 2.8 kg/cow

**Q.** And the “Total number of cured cows” value [4, 23]?
**A.** 8

**Q.** And the “Milk production (daily yield)” value [4, 24]?
**A.** 18.2 ± 1.4 kg/cow

**Q.** What about the “Total number of cured cows” value [4, 24] of the same compound?
**A.** 4

**Q.** And the “Milk production (daily yield)” value [4, 25]?
**A.** 22.6 ± 2.5 kg/cow

**Q.** What about the “Total number of cured cows” value [4, 25] of the same compound?
**A.** 6

**Q.** What about the “Milk production (daily yield)” value [4, 26] of the same compound?
**A.** 20.4 ± 1.9 kg/cow

**Q.** What about the “Total number of cured cows” value [4, 26] of the same compound?
**A.** 5

**Q.** And the “Milk production (daily yield)” value [4, 27]?
**A.** 20.8 ± 2.2 kg/cow

**Q.** And the “Total number of cured cows” value [4, 27]?
**A.** 5

**Q.** And the “Milk production (daily yield)” value [4, 28]?
**A.** 24.2 ± 1.7 kg/cow

**Q.** What about the “Total number of cured cows” value [4, 28] of the same compound?
**A.** 8

**Q.** What about the “Milk production (daily yield)” value [4, 29] of the same compound?
**A.** 22.1 ± 1.6 kg/cow

**Q.** And the “Total number of cured cows” value [4, 29]?
**A.** 7

**Q.** What about the Mortality rate [5, 6] of the same compound?
**A.** 50%

**Q.** What about the “White blood cell count” value [5, 6] of the same compound?
**A.** 9.1 ± 0.5 ×10^9

**Q.** And the Mortality rate [5, 7]?
**A.** 40%

**Q.** What about the “White blood cell count” value [5, 7] of the same compound?
**A.** 9.3 ± 0.9 ×10^9

**Q.** And the Mortality rate [5, 8]?
**A.** 90%

**Q.** What about the “White blood cell count” value [5, 8] of the same compound?
**A.** 4.7 ± 0.3 ×10^9

**Q.** What about the Mortality rate [5, 9] of the same compound?
**A.** 80%

**Q.** And the “White blood cell count” value [5, 9]?
**A.** 7.7 ± 0.4 ×10^9

**Q.** And the Mortality rate [5, 10]?
**A.** 70%

**Q.** And the “White blood cell count” value [5, 10]?
**A.** 7.8 ± 0.6 ×10^9

**Q.** And the Mortality rate [5, 11]?
**A.** 60%

**Q.** And the “White blood cell count” value [5, 11]?
**A.** 8.8 ± 0.7 ×10^9

— patent US11510933B2, “Use of Pulsatilla chinensis extract in the preparation of drugs for treatment of viral and/or bacterial diseases” (priority 2018, dated 2022)
